Measured values: US8546322B2, “Inhibitors of intracellular urokinase plasminogen activator and methods of use thereof” (The Regents of the University of California, priority 2007, dated 2013)
Entries after “also recorded” stand apart in the source; their conditions may differ. Read-outs that look alike come from different tables or passages of the source. Blank lines part the entries; values can stand above or below the compound they belong to. *1 amine or outer side, *2 acyl side, *3 side chain or, on linkers, in order; H or OH if unused. Where a SMILES comes first, the peptide text is derived from it. [ ]: non-standard residue; d: D form. X1 = N=C(N)NC(=O)c1nc(Cl)c(N(CC(=O)[*:2])[*:1])nc1N

Tests used:
glioma cells = experiment: Glioma cell volume in vitro and in intracerebral xenografts (7 tesla NMR); assay type: cell-based
U87 glioma cells [1] = experiment: U87 proliferation and survival, tetrazolium (WST) live cell assay and manual cell counts; assay type: cell-based, human; conditions: for activity at 250 µM: Homo sapiens, U-87 MG, 48 h treatment, read-out: cell numbers as % of control at 48 h (WST assay)
Protocol: Proliferation of U87 glioma cells was inhibited by AmC(5)-GlyOBn at 24 h. […] Manual cell counts, coupled with the trypan blue exclusion assay, determined the number of viable cells at 24 h and 48 h. Three separate experiments (n=6/exp) with S.D. as shown, *significance at P<0.01. Removal of AmC(5)-GlyOBn at 24 h caused cell numbers to increase by 48 h, as compared with U87 glioma cell numbers that continued to be treated with the drug for 48 h (Table 1).
Total live cell numbers per well were determined using a tetrazolium assay (WST).
WST […] that can be reduced in attached and detached live cells to formazon that is detected spectrophotometrically. Formazon formation has been determined to be proportional to glioma cell number for U87MG, U251, U373, and primary astrocytes. Absorbances are measured at 570 nm using a microtiter plate reader. Mean background absorbances of cell-free media (630 nm) are subtracted from these values. […] Identical concentrations of glioma cells are grown until 50% confluent on 60 mm plates. Following drug treatments, floating cells in media are collected and combined with adherent cells that were harvested following 0.25% v/v trypsin for 5 minutes (37° C.). The combined fractions are centrifuged at 350×g for 5 min. The resultant cell pellet is resuspended in equal volumes of PBS-CMF with 0.4% trypan blue.

U87 glioma cells [2] = experiment: U87 glioma cell adherence to extracellular matrix (ECM); assay type: cell-based, human; conditions: for activity at 250 µM: Homo sapiens, U-87 MG, U87 cells on ECM, 4 h, read-out: % of control attachment at 4 h
Protocol: As shown in FIGS. 4A and B and, U87 glioma cells in logarithmic growth were trypsinized and washed ×1 with PBS. 4×10^5 cells were plated on to each ECM-coated well that was treated as indicated. Cells were monitored for adherence to the ECM. The numbers of attached cells in each well were manually counted using interference microscopy after 4 hours when adherence was complete. Experiments were performed in triplicate for each treatment and data expressed as mean+S.D. **statistically signif at P<0.001. Glioma cell morphology 4 h after plating as visualized by phase contrast microscopy.
To study adherence, wells in 24-well plates are coated with 200 ul of PBS (CMF Dulbecco's) containing one of the following ECM substrates: {i} […] {ii} vitronectin {iii} fibronectin {iv} lamininin-5. Plates are incubated 1 h at 37° C. then wells are washed once with prewarmed serum-free DMEM and the drug added to each well. Each treatment group, consisting of pretreated glioma cells (3×10^3 cells/well) is plated into 6 wells, and adhesion is evaluated at 60 min intervals over a 6-18 hour period, depending of the cell line. Unbound cells are gently dislodged with Dulbecco's PBS, while counting adherent cells in 10 random fields per each well under 10× magnification using an inverted microscope with interference phase optics and an ocular grid (21 mm^2). During the same time intervals, the percent value of spread cells with respect to adherent cells is evaluated.

[3] = target: T1, bovine pancreatic trypsin (Bos taurus, UniProt P00760); experiment: LCMS trypsin digest (negative control enzyme); assay type: biochemical; conditions: LCMS after incubation with enzyme
T1 construct: purchased Calbiochem; host or cells: bovine pancreas
T1 sequence (P00760 24-246): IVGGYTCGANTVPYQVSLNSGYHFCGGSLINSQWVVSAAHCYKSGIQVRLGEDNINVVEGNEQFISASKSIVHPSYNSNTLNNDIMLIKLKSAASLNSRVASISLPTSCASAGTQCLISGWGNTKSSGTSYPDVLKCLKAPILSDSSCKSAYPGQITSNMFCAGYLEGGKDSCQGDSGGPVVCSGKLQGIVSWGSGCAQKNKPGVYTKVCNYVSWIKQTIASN
Protocol: (§1) Compound 3b is a C5am-Gly-peptide conjugate containing two D-amino acids, and compound 3c is a C5 am-Gly-peptide conjugate coupled to a peptide to generate an analog of opioid peptides that cross the blood brain barrier (BBB). The resultant conjugates (compounds 3a-c) were tested for selective cleavage by the brain peptidase enkephalinase (neutral endopeptidase 24.11; Calbiochem) via incubation for 24 h in the presence or absence of the enzyme, and aliquots from the reaction solutions were then analyzed by LCMS to identify the C5am-Gly conjugate (compound 3a), starting material, and enzymatic cleavage products (see, Scheme 3). As negative control experiments, the conjugates were analyzed following treatment with (1) bovine pancreatic trypsin (Calbiochem) or (2) the buffer solutions without enzymes.

U87 glioma cells [4] = experiment: U87 cell death, manual cell counts with trypan blue exclusion; assay type: cell-based, human; conditions: for % cell death, trypan blue: 250 microM, 48 h treatment
[5] = Incubation in buffer solutions without enzymes; assay type: physicochemical
Protocol: as §1

U87 glioma cells [6] = experiment: Cell permeation by fluorescent microscopy of U87 glioma cells; assay type: cell-based; conditions: 50 μM, 90-180 min incubation
Protocol: 27). The fluorescent extinction coefficient of each compound is determined using a spectrofluorometer and permits semi-quantitative estimations of intracellular drug accumulation.
U87 glioma cells were incubated with 50 uM of each compound for 180 min followed by washing the cells ×2 with PBS.

NHE1 = target: T2, NHE1 (Homo sapiens, UniProt P19634); experiment: Sodium-proton exchange (NHE1) inhibition in glioma cells (BCECF fluorometry); assay type: cell-based
T2 construct: endogenous in cells; host or cells: glioma cell lines (U87)
T2 sequence (P19634 whole entry): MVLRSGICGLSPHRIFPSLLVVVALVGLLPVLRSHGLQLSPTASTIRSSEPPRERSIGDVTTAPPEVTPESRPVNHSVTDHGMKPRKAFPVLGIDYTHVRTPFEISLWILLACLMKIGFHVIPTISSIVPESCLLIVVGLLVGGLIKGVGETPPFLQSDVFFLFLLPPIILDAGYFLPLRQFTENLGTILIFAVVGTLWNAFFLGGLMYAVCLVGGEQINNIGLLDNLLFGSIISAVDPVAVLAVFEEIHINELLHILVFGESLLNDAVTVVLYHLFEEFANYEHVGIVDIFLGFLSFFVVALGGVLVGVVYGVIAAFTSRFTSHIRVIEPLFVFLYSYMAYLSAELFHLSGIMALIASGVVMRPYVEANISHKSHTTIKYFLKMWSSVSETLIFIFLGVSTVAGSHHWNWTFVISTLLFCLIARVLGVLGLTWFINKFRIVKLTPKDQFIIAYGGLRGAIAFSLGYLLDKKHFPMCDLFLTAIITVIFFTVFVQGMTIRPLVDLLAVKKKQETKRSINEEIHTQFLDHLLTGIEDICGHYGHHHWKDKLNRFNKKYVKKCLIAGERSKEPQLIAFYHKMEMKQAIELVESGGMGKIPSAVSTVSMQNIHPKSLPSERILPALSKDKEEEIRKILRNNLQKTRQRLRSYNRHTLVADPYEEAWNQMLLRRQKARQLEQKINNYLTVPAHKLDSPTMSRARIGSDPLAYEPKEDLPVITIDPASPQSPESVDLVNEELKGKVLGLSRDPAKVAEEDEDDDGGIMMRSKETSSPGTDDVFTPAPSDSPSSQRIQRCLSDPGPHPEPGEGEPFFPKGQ
Protocol: Sodium-proton type 1 (NHE1) and sodium-calcium transport (NCX) measurements in glioma cells. Inhibition of NHE in glioma cell lines using BCECF and quantitative fluorometry are routinely measured (McLean, L. A., et al., Malignant gliomas display altered pH regulation by NHE1 compared with nontransformed astrocytes. Am J Physiol Cell Physiol, 2000. 278(4): p. C676-88). IC50 of NCX transport bidirectionally is measured using whole cell patch clamping bidirectional NCX inhibition using a HEK-293 cell line transfected with NCX 1.1 obtained from J. Lytton (Dong, H., J. Dunn, and J. Lytton, Stoichiometry of the Cardiac Na+/Ca2+ exchanger NCX1.1 measured in transfected HEK cells. Biophys J, 2002. 82(4): p. 1943-52).

uPA = target: T3, uPA (Homo sapiens, UniProt P00749); experiment: uPA enzymatic inhibition with peptide-specific fluorogenic substrates; assay type: biochemical
T3 construct: uPA, tPA, and MMP-2 and MMP-9 enzymatic activities secreted by and contained within glioma cell lines; endogenous in cells; host or cells: U87 and other human glioma cell lines (homogenates, conditioned media)
Protocol: uPA, tPA, and MMP-2 and MMP-9 enzymatic activities secreted by and contained within glioma cell lines, normal astrocyte cultures, primary rat brain, and intracranial glioma xenograft homogenates are measured using commercial peptide analog substrates, that become fluorescent when enzymatically cleaved. Recombinant tPA was obtained from ASSAYPRO, CT1001.

[7] = Neuropathology and behaviour with intracranial administration; assay type: in vivo
Description: […]. For amiloride, parasaggital sections were stained with hematoxylin and eosin in addition to using specialized stains for neuronal damage (FluoroJade) and for myelinated fiber tracts (luxol fast blue). […].
. Each experimental and control group described below consist of a minimum of 10 animals per group. Experimental Design. The in vivo toxicity studies initially employ single, daily intracranial infusions of the candidate compound into a group of Sprague-Dawley rats for 13 days. Treated S-D animals are compared to a group of 10 control animals receiving intracranial drug vehicle injections. The infused drug concentration is based upon the cell line studies and adjusted for the low protein content of the cerebrospinal fluid which is 0.2% that of serum. Animals are behaviorally assessed for toxicity. […]. General Health and Behavioral Studies. Body weights and behavioral parameters are assessed daily in drug-treated and vehicle-treated rats during 12 day treatment paradigms. Currently, standardized behavior tests are used, which include quantitative measures of vestibulomotor function, fine motor coordination, ambulation, and spatial memory. A daily neurotoxicity behavioral sign checklist (72) to detect neurological signs of toxicity and seizures is also performed. Acquisition of spatial memory is particularly sensitive for detecting subtle drug toxicities (Preliminary Results). Body weight is used as a measure of general health. Neuropathological Studies: Cytological studies are performed in the same drug-treated and vehicle-treated rats at the conclusion of behavioral testing. Fixation and sectioning techniques are described in the Experimental Methods section. Hematoxylin and eosin are used routinely to survey for neuropathological changes. Luxol fast blue stains myelin tracts to evaluate potential white matter changes. […] Assessment of brainstem white matter tracts with luxol fast blue staining includes the spinocerebellar, vestibulospinal, corticospinal, spinothalamic. Specialized stains for reactive astrocytes, neuronal chromatolysis, etc. are added if brain lesions are detected. […]. Potential Problems and Alternatives. […]. […] These behavioral studies indicate the need to behaviorally assess treatment of the glioma tumor models.

[8] = test system: intracerebral human U87 glioma xenografts; experiment: Intracerebral U87 glioma xenograft growth (NMR, stereology); assay type: in vivo, athymic rats
Protocol: The volume of U87 glioma xenografts were measured at different postimplantation times using the small animal 7 tesla NMR facility on UC Davis campus.
Determining tumor doubling time (hrs) in U87 xenografts were measured using small animal NMR.
Pretreatment of athymic rats with intracranial AmC(5)Gly-OBn for 3 days prior to implantation achieved steady-state brain levels as measured by HPLC-fluorometry. Following glioma cell implantation, once daily intracranial administration was continued for 10 days.
Rats (250-280 gm) are intubated with 4% isoflurane and air:O2 (2:1), maintained on 2% isoflurane, and placed into a Kopf stereotactic apparatus. Glioma cells at are harvested at 80% confluence, trypsinized, and then washed three times in sterile, isotonic phosphate buffered saline. Cells are counted in a hemocytometer and diluted to a final concentration of 1×10^4 cells per microL. 5 microL of glioma cells (5×10^4) are stereotaxically injected into a 0.5 mm pocket made by a 23 gauge needle in the left anterior corpus striatum (−1 mm bregma, +4 mm left lateral, −5.0 mm depth) under sterile conditions in a laminar flow hood.
Prior to imaging the rats are administered 0.5 cc of OMNISCAN gadodiamide intraperitoneally (NYCOMED). […] A gradient recalled echo sequence is obtained which furnished a single slice in sagittal, coronal, and transverse orientations (‘triplot’) and which served as a scout image to ensure proper positioning of the animal. Spectroscopic images are obtained with a 7 Tesla (300 MHz) BRUKER BIOSPEC 70/20 system with a 210 mm horizontal bore equipped with B-GA12 shim coils driven by BRUKER Shim Power Supply with a maximum of 2A of current for each shim. S116 birdcage design resonator coil (maximum current: 100 A and maximum voltage: 150V) of 72 mm maximum sample diameter with gradient strength of 200 mT/mm was used for both. T1-weighted images (TR/TE=500/20 msec) are obtained using the standard spin echo sequence in the transverse, sagittal as well as in the coronal direction. […] Multiple contiguous slices separated by 1 mm are collected using 3 sinc pulses each of 2 msec duration, and which cover the entire tumor in one scan. The average scan time is approx 60 sec for the entire T1-weighted protocol.
Cavalieri's method estimates the volume of a structure (in our case, glial tumor) by measuring the area of the structure in a number of evenly spaced “two-dimensional” sections. In our in vivo tumor model, the procedure involves a systematically random collection of 10 sections evenly spaced through the entire tumor. To perform this, the brain is cut into 40 micron coronal sections and every section is collected to encompass the entire tumor. When the anterior most portion of the tumor becomes visible in the series of sections, a die is thrown to determine if the first, second, third, fourth, or fifth section from that point should be the initial section saved for staining and area analysis. Henceforth, every tenth section is stained and tumor area measured. This ensures that each section through the tumor has an equal probability of being analyzed. Tumor area is estimated with suitable precision by applying to each section a point grid with a known area associated with each point (a/p). Tumor volume (V) is then calculated using the formula: V=(T)·(a/p) delta Pi; where T=distance between sections, P=points landing on the tumor on the ith section.

[9] = in vivo; cited from earlier work
[10] = phase II; cited from earlier work
rat breast cancer = conditions: in vivo; cited from earlier work

- cleavage by trypsin (in words) [3]: unaffected
- stability in control (buffer) digestion (in words) [5]: unaffected
- cell permeation (in words) (U87 glioma cells [6]): does not permeate glioma cells
- cell permeation (in words) (U87 glioma cells [6]; listed as AmC(5)Gly-OH): does not permeate cells
- cell permeation (in words) (U87 glioma cells [6]; listed as AmC(5)GlyOH): does not
- inhibition of NHE1 (in words) (NHE1): reversible and micromolar inhibitor
- IC50 (NHE1; glioma cells): 10 to 100 nM
- potency of NHE1 inhibition relative to amiloride (NHE1; glioma cells): 100-1000 times
- inhibition of NHE1 (in words) (NHE1; listed as AmC(5)Gly-OH): micromolar range
- inhibition of NHE1 (in words) (NHE1; listed as AmC(5)GlyOH): reversibly and comparably inhibit
- inhibition of NHE1 (in words) (NHE1; listed as C5am-Gly): rapidly reversed
- inhibition of uPA (in words) (uPA): reversible and micromolar inhibitor
- inhibition of uPA (in words) (uPA; listed as AmC(5)-Gly-OH): selectively inhibit
- inhibition of uPA (in words) (uPA; listed as AmC(5)Gly-OH): micromolar range
- inhibition of uPA (in words) (uPA; listed as AmC(5)GlyOH): reversibly and comparably inhibit
Compound: N=C(N)NC(=O)c1nc(Cl)c(NCC(=O)O)nc1N [AmC(5)Gly, amilorideC(5)-glycine-OH]
- glioma cell volume (in words) (glioma cells): shrink glioma cell volumes
- glioma cell volume (in words) (glioma cells; listed as AmC(5)Gly-OH): does reduce glioma cell volume
- glioma cell proliferation (in words) (U87 glioma cells [1]): does not affect
- activity at 250 µM (U87 glioma cells [1]): 93%
- glioma cell adherence to ECM (in words) (U87 glioma cells [2]): does not affect
- activity at 250 µM (U87 glioma cells [2]): 85 ± 15%
- % cell death, trypan blue (U87 glioma cells [4]): (5) %
- glioma cell death / viability (in words) (U87 glioma cells [4]; 48 h): does not affect

Compound: NC(N)=NC(=O)c1nc(Cl)c(N)nc1N [Amiloride, 3,5-diamino-6-chloro-N-(diaminomethylene)pyrazinecarboxamide]
- activity at 250 µM (U87 glioma cells [1]): 31%
- behavioral side effects and seizures (in words) ([7]; efficacious intracranial administration): observed
- neuropathological changes in normal brain cell types (in words) ([7]; intracranial administration, 10-14 days): Neither compound produces neuropathological changes; also recorded: Neuropathological changes were not observed
- animals with intermittent seizures ([7]; intrathecal amiloride infusion, S-D male rats): 3 of 8
- spatial memory (in words) ([7]; intrathecal infusion): modestly affect spatial memory; also recorded: problems with spatial memory that persisted throughout the nine day infusion period
- premature deaths (in words) ([7]; rat, in vivo): no premature deaths
- motor performance (in words) ([7]; rats with intracerebral glioma xenografts, infusion): did not alter motor performance
- activity at 250 µM (U87 glioma cells [2]): 58 ± 12%
- % cell death, trypan blue (U87 glioma cells [4]): (57) %
- cell permeation (in words) (U87 glioma cells [6]): rapidly permeate cells
- Doubling time ([8]; 10 mM amiloride reservoir (Alzet pump, infused days 12-17), day 10 post implant): 3.07 h
- Doubling time ([8]; 10 mM amiloride reservoir, day 12 post implant): 3.4 h
- Doubling time ([8]; 10 mM amiloride reservoir, day 15 post implant): 3.99 h
- Doubling time ([8]; 10 mM amiloride reservoir, day 17 post implant): 4.44 h
- Doubling time ([8]; 100 mM amiloride reservoir, 276 pmol/24 h (infused days 12-17), day 10 post implant): 1.23 h
- Doubling time ([8]; 100 mM amiloride reservoir, 276 pmol/24 h, day 12 post implant): 1.98 h
- Doubling time ([8]; 100 mM amiloride reservoir, 276 pmol/24 h, day 15 post implant): 4.58 h
- Doubling time ([8]; 100 mM amiloride reservoir, 276 pmol/24 h, day 17 post implant): 11.65^++ hrs
- xenograft tumor growth (in words) ([8]; intracranial administration): significantly slowed the growth rate

- cleavage by trypsin (in words) [3]: not cleaved
Compound: CC(C)C[C@@H](NC(=O)[C@H](Cc1ccccc1)NC(=O)CNC(=O)[C@@H](C)NC(=O)CNc1nc(N)c(C(=O)NC(=N)N)nc1Cl)C(=O)O [Compound 3b, C5am-Gly-D-Ala-Gly-Phe-D-Leu-OH] (H-[X1][dA]GF[dL]-OH)
- stability in control (buffer) digestion (in words) [5]: not cleaved

- cleavage by trypsin (in words) [3]: did not generate C5am-Gly
Compound: CC(C)C[C@H](NC(=O)[C@H](Cc1ccccc1)NC(=O)CNC(=O)CNC(=O)CNC(=O)CNc1nc(N)c(C(=O)NC(=N)N)nc1Cl)C(=O)O [Compound 3c, C5am-Gly-Gly-Gly-Gly-Phe-Leu-OH] (H-[X1]GGGFL-OH)

Compound: NC(=NCc1ccc(Cl)cc1Cl)NC(=O)c1nc(Cl)c(N)nc1N [DCB, 2,4-dichlorobenzamil]
- toxicity (in words) [9]: highly toxic and causes lethality when administered

Compound: CCOC(=O)N1CCN(C(=O)[C@H](Cc2cccc(C(=N)N)c2)NS(=O)(=O)c2c(C(C)C)cc(C(C)C)cc2C(C)C)CC1.Cl [WX-UK1]
- toxicity in clinical trials (in words) [10]: non-toxic
- metastasis and primary tumour growth (in words) (rat breast cancer): suppresses rat breast cancer metastasis
